In assay [1] the test system is Brca1 and Brca2 deficient cells. The experiment in a line: Timed-exposure clonogenic assay, Brca1 and Brca2 deficient cells. Type of assay: cell-based, mouse. On the procedure:
(§1) For measurement of sensitivity to chemical inhibitors, cell cultures e.g. ES cells or mouse embryonic fibroblasts, in exponential growth were trypsinised and seeded at various densities in 6-well plates onto confluent monolayer of Mitomycin C (MMC) inactivated mouse embryonic fibroblasts and, where appropriate, treated with inhibitors after 18 h. For continuous exposure, cells were re-fed every 4 days with fresh medium and inhibitor. For timed exposures, inhibitor was added for the specified period then cells were washed and re-fed with fresh medium. After 10-14 days, cells were washed with PBS, fixed in methanol and stained with crystal violet. Colonies containing greater than approximately 50 cells were counted. Experiments were performed at least three times in triplicate.
Cells were exposed to different concentrations of KU0058684 for defined periods of time. The inhibitor was then removed and the effects measured using a clonogenic assay. The inhibitory effects of KU0058684 on clonal growth were apparent after a relatively short exposure time, 4 h, and were essentially complete by 24 h exposure (FIGS. 5 and 6).

The subject of a further assay is wild-type ES cells. The experiment in a line: Rad51 focus formation, wild-type ES cells. The format is cell-based, mouse. To be noted: 48 hours. On the procedure:
(§2) ES cells were cultured for 48 h in various concentrations of PARP inhibitor fixed in 4% paraformaldehyde in PBS and permeabilised with 0.2% Triton X100 in PBS. Cells were stained with a 1:100 dilution of rabbit anti-Rad51 ployclonal antibody (Ab 551922, BD-Pharmingen, Oxford, UK). After washing, the primary antibody was visualised with Alexa Fluor-555 goat anti-rabbit IgG (Alexa) and nuclei with TO-PRO-3 iodide (Molecular Probes). Rad51 foci and γH2Ax foci were visualised with and quantified using a Leica TCS-SP2 confocal microscope.
Wild-type, and Brca1 and Brca2 defective ES cells were exposed to differing concentrations of KU0058684 for 48 hours. Cells were then fixed and stained for RAD51 foci as described by Tarsounas (Tarsounas M et al Oncogene. 2003 22(8): 1115-23).

The subject of the next assay is HeLa cells. The experiment in a line: Cell viability, HeLa cells exposed to PARP inhibitor and caffeine. Conditions: 1 mM Caffeine plus KU0058684.
The test system of assay [2] is chinese hamster ovary cells deficient in Brca2 (V-C8). The experiment in a line: Clonogenic assay, Brca2 deficient chinese hamster ovary cells (V-C8) vs Brca2-complemented derivative. Conditions: Brca2 deficient CHO cells vs complemented derivative. The format is cell-based.
From the text: VC8 cells and the mouse Brca2 BAC complemented derivatives were as described in M. Kraakman-van der Zwet et al., Mol Cell Biol 22, 669-79 (2002)). ES cells defective in Brca2 function have been described previously (Tutt et al. (2002) EMBO Rep 3, 255-60). The construction of ES cells defective in Brca1 will be described elsewhere but have previously been validated (Foray et al. (2003) Embo J 22 2860-71). HBL100 cells were transfected with a pSUPER BRCA1 RNAi plasmid and selected with geneticin for 3 weeks. Clones were selected on the basis of their BRCA1 expression, as analysed by Northern blot.
as §1

In assay [3] the test system is Brca2 deficient ES cell derived tumours. In words: ES cell xenografts (teratomas) in athymic BALB/c nude mice. The format is in vivo, mouse. Conditions: 15 mg/kg intraperitoneal, two doses per day. Here is the method:
ES cell derived tumours (teratomas) were produced by subcutaneous injection of […] ES cells into 6-8 week athymic BALB/c nude (nu/nu) mice. Twenty mice were injected with Brca2 deficient ES cells and an identical cohort with isogenic wild type cells. Two days after cell injection, treatment with KU0058684 or vehicle was initiated. For three consecutive days, two Intraperitoneal doses of KU0058684 (or vehicle) were administered, six hour apart, each at a dosage of 15 mg/kg animal. This treatment was then stopped for five days and then reinitiated (as before) for another three consecutive days. Growth of tumours was monitored from a minimum volume of 0.3 cm^3. The data in FIG. 16 represents two separate experiments involving in total 40 animals.

Another assay concerns the target vault PARP (Homo sapiens, UniProt Q9UKK3). In words: Selectivity: vault PARP inhibition. Type of assay: biochemical. Conditions: at concentrations up to 1 μM.
In another assay the test system is tankyrase. To be noted: at concentrations up to 1 μM.
The next assay has as its system VC8-BAC cells. The experiment in a line: Neutral comet assay, complemented VC8-BAC line. Type of assay: cell-based, chinese hamster. Conditions: 30-hour exposure to 1 μM. Here is the method:
VC8 and VC8-BAC cells were plated 24 hours prior to treatment with 1 μM KU0058684 for 30 hours. All further work was carried out in the dark. Cells were washed with and scraped into PBS prior to Comet analysis as described (Lemay and Wood, 1999). Cells suspended in LMP agarose (0.5% in PBS) were spread onto Comet slides (Trevigen, Gaithersburg) and placed at 4 C until set, prior to lysis for 45 mins in 2.5M NaCl, 100 mM EDTA, 10 mM Tris Base, 1% sodium lauryl sarcosinate, 0.01% Triton X-100. Slides were transferred to TBE for 5 mins prior to electrophoresis at 18V for 15 mins. Slides were then fixed in 100% ethanol for 5 mins and air dried before the addition of SYBR green dye and visualisation by epifluorescence using fluorescien filters (Nikon). Comets were analysed using the Comet software module of the Lucia G imaging package as supplied by Nikon. 50 comets per data point were examined for each of three independent experiments and the mean tail moment calculated.

The test system of assay [4] is Brca1 and Brca2 wild type and mutant ES cells. The experiment in a line: FACS analysis of cell cycle arrest (DNA content, phospho-histone H3). The format is cell-based, mouse. Here is the method:
For DNA content measurement, cells were fixed in 70% ethanol, incubated with Rnase A and propidium iodide (PI) and analysed with a FACSCalibur (Becton Dickinson). For phospho-Histone H3 analysis, cells were fixed in 70% ethanol, permeabilised with 0.25% triton X-100, incubated with anti-phospho-histone H3 antibody (Upstate Biotechnology) for 3 hours, and then with FITC-anti rabbit IgG (Serotec) for 30 minutes.
Cells were exposed with KU0058684 for various periods then labelled with BrdU and the proportion of cells in each phase of the cell cycle. […] To further characterise this arrest, cells were analysed for both DNA content and for phosphorylated Histone H3, an M phase marker. […]
Background: In flow cytometry, cells or beads pass a laser one at a time.

Assay [5] relates to wild-type, Fanca−/−, Fancc−/− and Fanca−/−c−/− cells. The experiment in a line: RAD51 focus formation in wild-type and FA fibroblasts. The format is cell-based, mouse. Conditions: 48 hours exposure. Here is the method:
The percentage of cells with >5 foci per cell was quantified.
as §2

In another assay the target is PARP-3 (Homo sapiens, UniProt Q9Y6F1). In words: Selectivity: PARP-3 inhibition. Type of assay: biochemical. To be noted: at concentrations up to 1 μM.
A further assay deals with PARP-2 (Homo sapiens, UniProt Q9UGN5). The experiment in a line: Inhibition of poly(ADP-ribose) polymerase activity of PARP-2. The format is biochemical.
A further assay has as its system Brca1 deficient ES cells. The experiment in a line: Clonogenic assay, continuous exposure, Brca1 deficient ES cells. Type of assay: cell-based, mouse. Here is the method: as §1
The mark [6] stands for this setting: timed exposure, inhibitor then removed.

PARP-2, sequence (Q9UGN5 whole entry): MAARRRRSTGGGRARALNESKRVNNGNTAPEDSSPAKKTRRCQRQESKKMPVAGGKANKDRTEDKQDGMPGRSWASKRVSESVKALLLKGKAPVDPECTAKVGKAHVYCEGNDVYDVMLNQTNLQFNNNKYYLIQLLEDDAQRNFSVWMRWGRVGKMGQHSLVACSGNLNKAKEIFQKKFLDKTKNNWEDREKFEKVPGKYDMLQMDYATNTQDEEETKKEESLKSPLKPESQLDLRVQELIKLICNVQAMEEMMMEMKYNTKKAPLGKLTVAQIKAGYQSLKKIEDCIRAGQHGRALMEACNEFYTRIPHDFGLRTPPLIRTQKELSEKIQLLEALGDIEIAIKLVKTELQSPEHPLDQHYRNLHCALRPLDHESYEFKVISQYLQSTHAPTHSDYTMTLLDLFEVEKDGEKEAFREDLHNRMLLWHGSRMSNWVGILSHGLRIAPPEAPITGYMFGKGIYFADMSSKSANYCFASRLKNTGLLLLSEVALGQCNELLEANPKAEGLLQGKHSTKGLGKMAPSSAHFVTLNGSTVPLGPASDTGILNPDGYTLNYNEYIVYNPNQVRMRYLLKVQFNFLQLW
vault PARP, sequence (Q9UKK3 whole entry): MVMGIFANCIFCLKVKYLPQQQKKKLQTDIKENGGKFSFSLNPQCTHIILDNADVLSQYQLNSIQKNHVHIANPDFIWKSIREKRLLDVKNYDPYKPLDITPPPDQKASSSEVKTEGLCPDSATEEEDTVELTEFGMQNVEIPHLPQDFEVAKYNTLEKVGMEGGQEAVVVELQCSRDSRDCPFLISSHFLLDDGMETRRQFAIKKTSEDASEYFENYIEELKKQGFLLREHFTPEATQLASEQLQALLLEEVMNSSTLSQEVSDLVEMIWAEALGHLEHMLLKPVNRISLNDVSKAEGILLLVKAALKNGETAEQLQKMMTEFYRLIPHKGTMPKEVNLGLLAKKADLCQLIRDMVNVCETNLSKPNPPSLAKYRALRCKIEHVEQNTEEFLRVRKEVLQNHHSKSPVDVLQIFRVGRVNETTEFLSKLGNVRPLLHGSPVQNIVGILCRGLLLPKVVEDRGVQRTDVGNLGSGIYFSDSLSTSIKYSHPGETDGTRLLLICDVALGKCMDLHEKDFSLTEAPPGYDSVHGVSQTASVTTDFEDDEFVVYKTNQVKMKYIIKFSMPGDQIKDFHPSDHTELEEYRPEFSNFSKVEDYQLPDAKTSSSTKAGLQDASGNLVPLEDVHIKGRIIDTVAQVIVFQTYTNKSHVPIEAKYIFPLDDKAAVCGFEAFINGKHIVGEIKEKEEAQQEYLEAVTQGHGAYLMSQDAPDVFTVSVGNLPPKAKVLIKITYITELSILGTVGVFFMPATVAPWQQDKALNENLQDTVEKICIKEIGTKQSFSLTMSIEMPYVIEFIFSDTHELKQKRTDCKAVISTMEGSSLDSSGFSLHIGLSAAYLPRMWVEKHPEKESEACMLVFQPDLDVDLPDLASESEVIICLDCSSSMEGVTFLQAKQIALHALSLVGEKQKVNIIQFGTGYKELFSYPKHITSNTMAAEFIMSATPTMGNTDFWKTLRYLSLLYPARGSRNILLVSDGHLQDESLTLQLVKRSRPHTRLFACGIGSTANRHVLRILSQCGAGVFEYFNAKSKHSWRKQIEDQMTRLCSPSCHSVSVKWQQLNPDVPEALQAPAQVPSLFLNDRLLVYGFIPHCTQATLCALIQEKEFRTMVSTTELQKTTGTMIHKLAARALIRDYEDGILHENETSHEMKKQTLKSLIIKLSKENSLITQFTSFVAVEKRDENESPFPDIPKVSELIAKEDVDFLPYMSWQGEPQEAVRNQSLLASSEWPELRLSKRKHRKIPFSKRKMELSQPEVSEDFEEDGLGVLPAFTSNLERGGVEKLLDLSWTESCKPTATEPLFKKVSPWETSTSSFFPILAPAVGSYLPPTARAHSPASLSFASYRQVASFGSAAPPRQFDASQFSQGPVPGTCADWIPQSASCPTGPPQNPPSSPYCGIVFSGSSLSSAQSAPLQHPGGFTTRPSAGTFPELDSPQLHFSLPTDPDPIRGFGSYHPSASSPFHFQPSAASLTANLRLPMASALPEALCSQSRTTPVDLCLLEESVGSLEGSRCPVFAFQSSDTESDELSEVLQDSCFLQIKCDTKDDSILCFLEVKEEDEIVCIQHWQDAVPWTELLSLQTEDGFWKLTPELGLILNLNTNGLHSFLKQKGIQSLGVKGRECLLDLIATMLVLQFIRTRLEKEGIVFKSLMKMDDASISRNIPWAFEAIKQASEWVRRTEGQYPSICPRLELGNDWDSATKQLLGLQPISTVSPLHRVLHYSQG
PARP-3, sequence (Q9Y6F1 whole entry, species assumed): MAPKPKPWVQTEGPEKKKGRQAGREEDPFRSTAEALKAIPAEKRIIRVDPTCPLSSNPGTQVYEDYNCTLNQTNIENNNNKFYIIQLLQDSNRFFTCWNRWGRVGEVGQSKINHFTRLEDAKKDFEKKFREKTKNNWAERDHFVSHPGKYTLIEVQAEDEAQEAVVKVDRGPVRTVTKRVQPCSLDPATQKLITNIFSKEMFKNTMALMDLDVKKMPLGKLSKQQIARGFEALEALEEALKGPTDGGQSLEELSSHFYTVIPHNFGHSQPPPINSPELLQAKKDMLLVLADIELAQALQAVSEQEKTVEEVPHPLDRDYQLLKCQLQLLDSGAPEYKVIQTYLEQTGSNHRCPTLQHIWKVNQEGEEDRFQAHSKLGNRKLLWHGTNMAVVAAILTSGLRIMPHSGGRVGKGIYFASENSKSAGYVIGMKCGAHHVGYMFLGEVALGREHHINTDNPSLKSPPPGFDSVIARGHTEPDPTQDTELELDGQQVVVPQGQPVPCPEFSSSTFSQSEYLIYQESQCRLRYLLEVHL
From the text for HeLa cells: Error bars represent standard errors of the mean.
Caffiene was used to determine whether loss of ATM and ATR dependent DNA signalling pathways would induce sensitivity to PARP inhibition.

`O=C1CCC(=O)N1c1cc(Cc2n[nH]c(=O)c3ccccc23)ccc1F` [KU0058684]: the “reversibility of the effects of PARP inhibition” value in [1] (short exposure followed by 10-14 days in the absence of inhibitor) was “irreversible”. In assay [1] (setting [6]), the “exposure time after which inhibitory effects on clonal growth were apparent” value was found to be 4 h and the “exposure time by which inhibitory effects on clonal growth were essentially complete” value is on record as at most 24 h. The Rad51 foci formation result with wild-type ES cells is reported as “caused Rad51 foci formation in a dose-dependent fashion”. In the assay on HeLa cells, the “sensitivity of HeLa cells to PARP inhibitor with caffeine” value is given as “increased sensitivity”. Further, in [2], the “enhanced sensitivity compared to a Brca2-complemented derivative” value is “greater than 1000 fold”. Besides, the “growth of Brca2 deficient tumours relative to wild-type tumours” value in assay [3] was “dramatically reduce the growth”. Moreover, the “inhibition of vault PARP” value on vault PARP is given as “do not inhibit”. In the assay on tankyrase, the inhibition of tankyrase result was “do not inhibit”. In the assay with VC8-BAC cells, the “increase in tail moment” value is recorded as “no significant increase”. Further, in assay [4], the “cell cycle arrest (DNA content, FACS)” value is reported as “profound arrest of cells with a tetraploid DNA content” and the “phase of arrest (phospho-histone H3 labelling)” value is recorded as “majority of cells were arrested in G2”. Besides, the RAD51 focus formation result in [5] was “Induction of RAD51 focus formation”. Further, the “inhibition of PARP-3” value at PARP-3 is listed as “do not inhibit”. Also, the “inhibition of poly(ADP-ribose) polymerase activity of PARP-1 and PARP-2” value at PARP-2 was “potent and specific inhibitors”. Moreover, the IC50 with Brca1 deficient ES cells (Brca1 deficient ES cells, continuous exposure, read-out: SF50 (dosage at which 50% of cells survived)) came to 35 nM. In the assay on Brca1 deficient ES cells (Brca1 mutant cells vs wild-type), the “enhanced sensitivity compared to wild-type” value came to 57 fold. For the same compound, the “sensitivity of Brca1 deficient cells compared to otherwise isogenic cells” value with Brca1 deficient ES cells (clonogenic assay) is “extremely sensitive”.
